Data: patent US20030007938A1, “Methods for treating fingernails and toenails” (priority 2001, published 2003)
Several values for one entry are separate records, joined by “and”; a condition that tells them apart may be missing. Equal values may be shown once.

Test system: index fingernail and cuticle
Assay: Fingernail growth of the index finger in human volunteers, daily topical treatment for four weeks
Format: in vivo
Protocol: This Example describes the use of a cream prepared with the complexes of peptone with copper (II) to improve nail growth in humans. The copper soy peptone complex (0.3% copper ion and 4% dry weight of peptone) was mixed into an application cream containing 55% (by weight) aloe vera gel, 12% squalane, 12% glycerol stearate, 5% PEG-100, 4% cetyl alcohol and 0.3% retinol. The placebo-treated control nails were treated with a similar cream that contained no copper-peptide complex. For testing experiments, the fingernail growth rates of the index finger were used as a measurement. In the first set of experiments, the copper-peptide complex was applied to the index fingernail and cuticle on the right hand while the left hand nail was untreated and used as a control. In the second set of experiments with different human volunteers, the copper-peptide cream was applied to the index fingernail and cuticle on the left hand while the right hand nail was treated with the placebo cream and used as a control. Nails were treated daily for four weeks. Nail length was measured from the end of the nail bed to the tip of the nail at its center by pushing a small plastic ruler under the nail and firmly against the nail bed. […] The effect of nail growth stimulation was approximately similar if either the right hand treated group or the left hand treated group was used. For testing experiments, the fingernail growth rates of the index finger were used as a measurement. In the experiments, the copper-peptide complex was applied to the index fingernail and cuticle on the right hand while the left hand nail was treated with the placebo cream and used as a control. Nails were treated daily for four weeks. Nail length was measured from the end of the nail bed to the tip of the nail at its center by pushing a small plastic ruler under the nail and firmly against the nail bed. […]

Substance: GHK-Copper (II) [GHK-Copper complex]
- Finger Nail Growth, Right Hand Treated (GHK-Copper (II) cream for four weeks, one value per person, left hand placebo control): 3.1 millimeters in four weeks and 3.5 millimeters in four weeks and 3.7 millimeters in four weeks and 3.4 millimeters in four weeks and 2.9 millimeters in four weeks
- Visual inspection of treated nails versus control hand (four weeks, readily apparent in all cases): appeared to be longer
- Nail growth of treated nails compared with control nails (summary in words of the table, four weeks): better nail growth
